Experimental findings from US20100075965A1, “PI3 KINASE INHIBITORS AND METHODS OF THEIR USE” (Novartis AG, priority 2006, published 2010) are described below.

The structures appear in SMILES notation. Like-named read-outs stand apart in the source and are kept apart here. Where only a bound is given, the exact number is not on record here.

For experiment [1], the system named is pSer473-Akt in A2780 cells. As to the kind of experiment: pSer473 Akt assay to monitor PI3K pathway in A2780 cells (MSD). It counts as cell-based. The note with it: Homo sapiens. How it is done: In this method, an assay for measuring the PI3K-mediated pSer^473-Akt status after treatment with representative inhibitor compounds of the preferred embodiments is described.
A2780 cells were cultured in DMEM supplemented with 10% FBS, L-glutamine, sodium pyruvate, and antibiotics. Cells were plated in the same medium at a density of 15,000 cells per well into 96 well tissue culture plates, with outside wells vacant, and allowed to adhere overnight.
Test compounds supplied in DMSO were diluted further into DMSO at 500 times the desired final concentrations before dilution into culture media to 2 times the final concentrations. Equal volumes of 2× compounds in media were added to the cells in 96 well plates and incubated at 37° C. for one hour. The media and compounds were then removed, the plates chilled and cells lysed in a lysis buffer (150 mM NaCl, 20 mM Tris pH 7.5, 1 mM EDTA, 1 mM EGTA, 1% Triton X-100) supplemented with phosphatase and protease inhibitors. After thorough mixing, lysates were transferred to both pSer473Akt and total Akt assay plates from Meso Scale Discovery (MSD), and incubated overnight with shaking at 4° C. The plates were washed with 1×MSD wash buffer and the captured analytes detected with secondary antibodies. After incubation with the secondary antibody at room temperature for 1-2 hours, the plates were washed again and 1.5× concentration of Read Buffer T (MSD) was added to the wells.
The assays were read on a SECTOR Imager 6000 instrument (Meso Scale Discovery). Ratios of the signal from pSer473Akt and total Akt assays were used to correct for any variability and the percent inhibition of pSer473Akt from the total signal seen in cells treated with compound versus DMSO alone was calculated and used to determine EC50 values for each compound as shown in Tables 1 and 2 in the column labeled “A2780 pAKT473 EC50”.

A further experiment concerns A2780 cells. Nature of the experiment: Viability assay in A2780 (Cell Titer Glo). The note with it: Homo sapiens, read-out: A2780 Cell prolif. EC50. It counts as cell-based, human. In a few lines:
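A2780 cells (1,000/well, DMEM + 10% FBS) were exposed to 3-fold serial dilutions of compound for 72 hrs at 37° C, 5% CO2. Viable cells were read by Cell Titer Glo luminescence, in duplicate, and EC50 values were derived from the curves.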

The next experiment addresses PI3 K Alpha (Homo sapiens, UniProt P42336). As to the kind of experiment: PI3 kinase phosphorylation assays (homogenous solution phase, one step solid phase, ATP depletion/KinaseGlo). It counts as biochemical.
Setting [2] is: A2780 cells, read-out: A2780 pAKT 473 EC50.
The mark [3] stands for this setting: 1 h, A2780 cells, one hour incubation, read-out: A2780 pAKT473 EC50.

PI3 K Alpha, sequence (P42336 whole entry): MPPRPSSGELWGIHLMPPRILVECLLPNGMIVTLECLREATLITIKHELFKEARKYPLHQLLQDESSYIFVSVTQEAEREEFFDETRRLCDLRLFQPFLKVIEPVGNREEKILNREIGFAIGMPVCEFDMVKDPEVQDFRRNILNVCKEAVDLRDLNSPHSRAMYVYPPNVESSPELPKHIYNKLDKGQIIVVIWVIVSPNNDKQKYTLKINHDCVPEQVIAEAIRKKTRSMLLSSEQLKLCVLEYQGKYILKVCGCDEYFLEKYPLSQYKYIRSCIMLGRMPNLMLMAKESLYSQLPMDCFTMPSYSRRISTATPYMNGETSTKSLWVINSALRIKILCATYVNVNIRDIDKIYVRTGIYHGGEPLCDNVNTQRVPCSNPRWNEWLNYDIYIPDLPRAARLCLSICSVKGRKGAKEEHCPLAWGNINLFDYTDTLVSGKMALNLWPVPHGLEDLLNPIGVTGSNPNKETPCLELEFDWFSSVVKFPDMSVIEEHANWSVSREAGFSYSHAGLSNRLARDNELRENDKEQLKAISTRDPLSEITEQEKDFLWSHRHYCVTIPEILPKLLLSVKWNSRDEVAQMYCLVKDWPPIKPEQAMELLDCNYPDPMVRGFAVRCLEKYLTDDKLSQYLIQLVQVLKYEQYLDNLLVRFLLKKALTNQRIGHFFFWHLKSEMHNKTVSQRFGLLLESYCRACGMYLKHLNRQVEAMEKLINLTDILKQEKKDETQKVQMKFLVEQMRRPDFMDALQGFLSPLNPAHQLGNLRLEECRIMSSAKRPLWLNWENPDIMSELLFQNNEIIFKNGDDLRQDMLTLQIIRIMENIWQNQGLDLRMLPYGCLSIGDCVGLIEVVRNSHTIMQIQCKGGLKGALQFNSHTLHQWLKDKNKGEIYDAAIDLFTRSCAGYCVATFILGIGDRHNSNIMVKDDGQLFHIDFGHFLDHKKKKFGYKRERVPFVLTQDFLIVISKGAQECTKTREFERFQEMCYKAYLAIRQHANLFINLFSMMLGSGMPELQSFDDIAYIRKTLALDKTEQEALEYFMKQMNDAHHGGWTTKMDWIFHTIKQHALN
PI3 K Alpha, sequence (P27986 whole entry partner): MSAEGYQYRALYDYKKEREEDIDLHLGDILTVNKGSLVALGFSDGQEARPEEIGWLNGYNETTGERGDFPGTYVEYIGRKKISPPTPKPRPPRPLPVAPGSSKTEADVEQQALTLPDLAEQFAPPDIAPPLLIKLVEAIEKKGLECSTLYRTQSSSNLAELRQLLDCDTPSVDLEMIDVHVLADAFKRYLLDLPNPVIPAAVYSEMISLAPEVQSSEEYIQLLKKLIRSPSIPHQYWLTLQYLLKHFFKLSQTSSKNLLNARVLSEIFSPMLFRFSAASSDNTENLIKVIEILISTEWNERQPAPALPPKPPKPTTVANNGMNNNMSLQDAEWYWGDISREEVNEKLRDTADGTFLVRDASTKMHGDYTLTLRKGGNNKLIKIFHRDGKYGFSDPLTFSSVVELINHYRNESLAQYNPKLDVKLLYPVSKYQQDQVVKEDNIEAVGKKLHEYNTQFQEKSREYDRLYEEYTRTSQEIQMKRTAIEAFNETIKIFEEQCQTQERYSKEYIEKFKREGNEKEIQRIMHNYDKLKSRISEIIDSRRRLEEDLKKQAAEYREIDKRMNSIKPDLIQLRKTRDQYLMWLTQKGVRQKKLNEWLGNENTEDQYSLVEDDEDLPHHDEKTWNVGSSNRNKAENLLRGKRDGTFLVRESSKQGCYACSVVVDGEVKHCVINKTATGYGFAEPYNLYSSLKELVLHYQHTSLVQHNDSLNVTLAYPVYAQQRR

In the case of `Nc1ncc(-c2ccc3nc(NC(=O)c4ccc(-n5ccnc5)cc4)cn3c2)cc1C(F)(F)F` [Example 187, N-(6-(6-amino-5-(trifluoromethyl)pyridin-3-yl)imidazo[1,2-a]pyridin-2-yl)-4-(1H-imidazol-1-yl)benzamide], the EC50 in experiment [1] (setting [2]) was less than 1000 nM; in the experiment with A2780 cells (A2780 cells) it was less than 10000 nM. Besides, the IC50 on PI3 K Alpha (read-out: PI3K Alpha IC50) is less than 1000 nM. As for `CC(=O)Nc1cn2cc(-c3cnc(N)c(O[C@@H](C)C(F)(F)F)n3)ccc2n1` [Example 55, (S)-N-(6-(5-amino-6-(1,1,1-trifluoropropan-2-yloxy)pyrazin-2-yl)imidazo[1,2-a]pyridin-2-yl)acetamide], the concentration for a half-maximal effect (EC50) in experiment [1] (setting [2]) was less than 1000 nM.

With `Nc1ncc(-c2ccc3nc(NC(=O)CN4CCCCC4)cn3n2)cc1C(F)(F)F` [Example 133, N-(6-(6-amino-5-(trifluoromethyl)pyridin-3-yl)imidazo[1,2-b]pyridazin-2-yl)-2-(piperidin-1-yl)acetamide], the EC50 is less than 1000 nM in experiment [1] (setting [2]) and less than 10000 nM in the experiment on A2780 cells (A2780 cells). In addition, the IC50 on PI3 K Alpha (read-out: PI3K Alpha IC50) is less than 1000 nM. Consider `CC(=O)Nc1cn2cc(-c3cnc(N)c(-c4ccccc4F)c3)ccc2n1` [Example 114, N-(6-(6-amino-5-(2-fluorophenyl)pyridin-3-yl)imidazo[1,2-a]pyridin-2-yl)acetamide], for which the values for the EC50 (in experiment [1] (setting [2]); with A2780 cells (A2780 cells)) were less than 1000 nM and less than 10000 nM, respectively. For the same compound, the IC50 on PI3 K Alpha (read-out: PI3K Alpha IC50) is less than 1000 nM.

As to `CC(=O)Nc1nc2ccc(-c3cnc(N)c(C(F)(F)F)c3)cn2c1C#Cc1ccccc1` [Example 23, N-[6-(6-Amino-5-trifluoromethyl-pyridin-3-yl)-3-phenylethynyl-imidazo[1,2-a]pyridin-2-yl]-acetamide], the figures for the EC50 (in experiment [1] (setting [2]); in the experiment on A2780 cells (A2780 cells)) were less than 1000 nM and less than 10000 nM, respectively. In addition, the 50% inhibitory concentration (IC50) on PI3 K Alpha (read-out: PI3K Alpha IC50) is less than 1000 nM. With `CC(=O)Nc1nc2ccc(-c3cnc(N)c(F)c3)cc2s1` [Example 2-6, N-[6-(6-Amino-5-fluoro-pyridin-3-yl)-benzothiazol-2-yl]-acetamide], the EC50 in experiment [1] (setting [3]) is less than 1000 nM; in the experiment with A2780 cells (A2780 cells, 72 hrs), less than 10000 nM. Further, the concentration for half-maximal inhibition (IC50) on PI3 K Alpha (ATP depletion assay, read-out: PI3 K Alpha IC50) was less than 1000 nM. As to `COC(=O)CCCC(=O)Nc1cn2nc(-c3cnc(N)c(C(F)(F)F)c3)ccc2n1` [Example 132, methyl 5-(6-(6-amino-5-(trifluoromethyl)pyridin-3-yl)imidazo[1,2-b]pyridazin-2-ylamino)-5-oxopentanoate], the EC50 in experiment [1] (setting [2]) was less than 1000 nM; in the experiment with A2780 cells (A2780 cells) it was less than 10000 nM. In addition, on PI3 K Alpha (read-out: PI3K Alpha IC50), the half-inhibitory concentration (IC50) was less than 1000 nM. For `Nc1ncc(-c2ccc3nc(NC(=O)CCCN4CCOCC4)sc3c2)cc1C(F)(F)F` [Example 2-12, N-[6-(6-Amino-5-trifluoromethyl-pyridin-3-yl)-benzothiazol-2-yl]-4-morpholin-4-yl-butyramide], the EC50 in experiment [1] (setting [3]) was less than 1000 nM; in the experiment on A2780 cells (A2780 cells, 72 hrs), less than 10000 nM. `COc1cc(-c2ccc3nc(NC(C)=O)cn3n2)cnc1N` [Example 21, N-[6-(6-Amino-5-methoxy-pyridin-3-yl)-imidazo[1,2-b]pyridazin-2-yl]-acetamide]: in experiment [1] (setting [2]), the EC50 was less than 1000 nM.

In the case of `Nc1ncc(-c2ccc3nc(NC(=O)CCCN4CCCCC4)sc3c2)cc1C(F)(F)F` [Example 2-21, N-[6-(6-Amino-5-trifluoromethyl-pyridin-3-yl)-benzothiazol-2-yl]-4-piperidin-1-yl-butyramide], the 50% effective concentration (EC50) was less than 1000 nM in experiment [1] (setting [3]) and less than 10000 nM in the experiment with A2780 cells (A2780 cells, 72 hrs).

On to `CC(=O)Nc1cn2cc(-c3cnc(N)c(O[C@H](C)C(F)(F)F)n3)ccc2n1` [Example 70, (R)-N-(6-(5-amino-6-(1,1,1-trifluoropropan-2-yloxy)pyrazin-2-a]pyridin-2-yl)acetamide], for which the EC50 in experiment [1] (setting [2]) was less than 1000 nM. With `CCOc1cc(-c2ccc3nc(NC(C)=O)cn3n2)cnc1N` [Example 119, N-(6-(6-amino-5-ethoxypyridin-3-yl)imidazo[1,2-b]pyridazin-2-yl)acetamide], the EC50 in experiment [1] (setting [2]) was less than 1000 nM. Consider `COc1cc(-c2ccc3nc(NC(C)=O)cn3c2)cnc1N` [Example 6, N-[6-(6-Amino-5-methoxy-pyridin-3-yl)-imidazo[1,2-a]pyridin-2-yl]-acetamide], for which the EC50 in experiment [1] (setting [2]) was less than 1000 nM.

Take `CC(=O)Nc1cn2cc(-c3cnc(N)c(OCC(F)(F)F)n3)ccc2n1` [Example 56, N-(6-(5-amino-6-(2,2,2-trifluoroethoxy)pyrazin-2-yl)imidazo[1,2-a]pyridin-2-yl)acetamide]: in experiment [1] (setting [2]), the EC50 is less than 1000 nM.

As to `COCCOc1nc(-c2ccc3nc(NC(C)=O)cn3c2)cnc1N` [Example 61, N-(6-(5-amino-6-(2-methoxyethoxy)pyrazin-2-yl)imidazo[1,2-a]pyridin-2-yl)acetamide], the EC50 in experiment [1] (setting [2]) is less than 1000 nM.

As to `CC(=O)Nc1cn2nc(-c3cnc(N)c(C(F)(F)F)c3)ccc2n1` [Example 16, N-[6-(6-Amino-5-trifluoromethyl-pyridin-3-yl)-imidazo[1,2-b]pyridazin-2-yl]-acetamide], the EC50 in experiment [1] (setting [2]) is less than 1000 nM. In the case of `CC(=O)Nc1cn2cc(-c3cnc(N)c(C(F)(F)F)c3)ccc2n1` [Example 5, N-[6-(6-Amino-5-trifluoromethyl-pyridin-3-yl)-imidazo[1,2-a]pyridin-2-yl]-acetamide], the half-maximal effective concentration (EC50) in experiment [1] (setting [2]) is less than 1000 nM. Take `CC(=O)Nc1nc2ccc(-c3cnc(N)c(C)c3)cc2s1` [Example 2-4, N-[6-(6-Amino-5-methyl-pyridin-3-yl)-benzothiazol-2-yl]-acetamide]: the EC50 in experiment [1] (setting [3]) was less than 1000 nM; in the experiment with A2780 cells (A2780 cells, 72 hrs), less than 10000 nM. Turning to `CC(=O)Nc1nc2ccc(-c3ccc(N)nc3)cc2s1` [Example 2-2, N-[6-(6-Amino-pyridin-3-yl)-benzothiazol-2-yl]-acetamide], the concentration giving a half-maximal response (EC50) in experiment [1] (setting [3]) is less than 1000 nM; in the experiment with A2780 cells (A2780 cells, 72 hrs) it was less than 10000 nM.

On to `Nc1ccc(-c2ccc3nc(NC(=O)C(F)(F)F)cn3c2)cn1` [Example 1, N-[6-(6-Amino-pyridin-3-yl)-imidazo[1,2-a]pyridin-2-yl]-2,2,2-trifluoro-acetamide], for which the EC50 is less than 10000 nM in experiment [1] (setting [2]) and less than 25000 nM with A2780 cells (A2780 cells). Consider `CC(=O)Nc1nc2ccc(-c3cnc(N)c(C(F)(F)F)c3)cc2s1` [Example 2-8, N-[6-(6-Amino-5-trifluoromethyl-pyridin-3-yl)-benzothiazol-2-yl]-acetamide], for which the concentration for a half-maximal effect (EC50) in experiment [1] (setting [3]) was less than 1000 nM; in the experiment on A2780 cells (A2780 cells, 72 hrs), less than 1000 nM. As for `CCOc1nc(-c2ccc3nc(NC(C)=O)cn3c2)cnc1N` [Example 62, N-(6-(5-amino-6-ethoxypyrazin-2-yl)imidazo[1,2-a]pyridin-2-yl)acetamide], the EC50 in experiment [1] (setting [2]) is less than 1000 nM. On to `COc1cc(-c2ccc3nc(NC(C)=O)sc3c2)cnc1N` [Example 2-9, N-[6-(6-Amino-5-methoxy-pyridin-3-yl)-benzothiazol-2-yl]-acetamide], for which the 50% effective concentration (EC50) in experiment [1] (A2780, 1 h, read-out: A2780 pAKT473 EC50) was less than 1000 nM; with A2780 cells (A2780, 72 h) it was less than 1000 nM. For the compound `CC(=O)Nc1nc2ccc(-c3cnc(N)nc3)cc2s1` [Example 2-1, N-[6-(2-Amino-pyrimidin-5-yl)-benzothiazol-2-yl]-acetamide], the half-maximal effective concentration (EC50) in experiment [1] (setting [3]) is less than 1000 nM; in the experiment with A2780 cells (A2780 cells, 72 hrs), less than 10000 nM. Regarding `Nc1ccc(-c2ccc3nc(NC(=O)CCCN4CCCCC4)sc3c2)cn1` [Example 2-5, N-[6-(6-Amino-pyridin-3-yl)-benzothiazol-2-yl]-4-piperidin-1-yl-butyramide], the EC50 in experiment [1] (setting [3]) was less than 1000 nM; in the experiment on A2780 cells (A2780 cells, 72 hrs), less than 10000 nM. In the case of `Nc1ncc(-c2ccc3nc(NC(=O)[C@@H]4CCCCN4)cn3c2)cc1C(F)(F)F` [Example 283, (S)-N-(6-(6-amino-5-(trifluoromethyl)pyridin-3-yl)imidazo[1,2-a]pyridin-2-yl)piperidine-2-carboxamide], the concentration giving a half-maximal response (EC50) was less than 1000 nM in experiment [1] (setting [2]) and less than 10000 nM in the experiment on A2780 cells (A2780 cells). Consider `COCCOc1cc(-c2ccc3nc(NC(C)=O)cn3n2)cnc1N` [Example 106, N-(6-(6-amino-5-(2-methoxyethoxy)pyridin-3-yl)imidazo[1,2-b]pyridazin-2-yl)acetamide], for which the 50% effective concentration (EC50) in experiment [1] (setting [2]) was less than 1000 nM. For the compound `COc1nc(-c2ccc3nc(NC(C)=O)cn3c2)cnc1N` [Example 101, N-(6-(5-amino-6-methoxypyrazin-2-yl)imidazo[1,2-a]pyridin-2-yl)acetamide], in experiment [1] (setting [2]), the EC50 was less than 1000 nM. For the compound `CC(=O)Nc1cn2cc(-c3cnc(N)c(OC(C)C)n3)ccc2n1` [Example 54, N-(6-(5-amino-6-isopropoxy-pyrazin-2-yl)imidazo[1,2-a]pyridin-2-yl)acetamide], in experiment [1] (setting [2]), the EC50 was less than 1000 nM. Take `CCOc1cc(-c2ccc3nc(NC(C)=O)cn3c2)cnc1N` [Example 111, N-(6-(6-amino-5-ethoxypyridin-3-yl)imidazo[1,2-a]pyridin-2-yl)acetamide]: in experiment [1] (setting [2]), the half-maximal effective concentration (EC50) was less than 1000 nM.
